# Assay results taken from patent US20210260091A1, “USE OF SALIDROSIDE AND DERIVATIVE THEREOF IN PREPARATION OF INHIBITOR MEDICAMENT FOR DISEASES OF OPHTHALMIC FIBROSIS CAUSED BY ABNORMALITIES OF EXTRACELLULAR MATRIX PROTEINS” (priority 2018, published 2021).
# Experiments:
# [1] = test system: laminin (LN), collagen IV (Col-IV) and fibronectin (FN) mRNA in trabecular meshwork cells; test: qRT-PCR of extracellular matrix expression in dexamethasone-induced normal human trabecular meshwork cells; type: cell-based
# Procedure: Normal Trabecular Meshwork cells (NTM) were cultured with F12 containing 10% fetal bovine serum (FBS). When the normal human trabecular meshwork cells were 75%-80% confluent, cells were digested with pancreatic enzymes and planted into a 6-well plate with 2 mL culture media per well.
# Normal human normal trabecular meshwork cells were used as a untreated control group. Normal human trabecular meshwork cells with dexamethasone added were used as the experimental control group. Normal human trabecular meshwork cells with dexamethasone and different concentrations of salidroside added were used as the experimental groups (The concentration of dexamethasone used in the experimental control group and the experimental groups was 10^−7 mol/L. The concentrations of salidroside were 1, 3, 10, 30, 100 μmol/L, respectively). The trabecular meshwork cells were cultured for 0, 3, 6, 12, 24, 48 h.
# Primer sequences for laminin (LN), collagen IV (Col-IV) and fibronectin (FN) mRNA were designed. Messenger RNA levels of LN, Col-IV, and FN were detected with qRT-PCR. Anti-LN, anti-Col-IV, and anti-FN antibodies were used to detect protein expression of the trabecular meshwork extracellular matrix protein in immunocytochemistry.
# FIGS. 1-3 show the effect of salidroside detected by the qRT-PCR on the extracellular matrix proteins of human trabecular meshwork induced by the dexamethasone. […]
# [2] = Mouse glaucoma model (intravitreal TGF-β2 overexpression adenovirus vector), intraocular pressure; type: in vivo, Balb/cJ mice; details: 40 mg/kg intraperitoneal once daily
# Procedure: 1. Salidroside powder was dissolved in normal saline to make 40 mg/kg salidroside solution. 2. Male Balb/cJ mice 8 to 12 weeks old and weighted about […] were used. The selected mice met the requirement of the first-level animal standards. Mice and feed were provided by the Experimental Animal Center of the Ninth People's Hospital, affiliated with Shanghai Jiaotong University School of Medicine. Vivarium temperature was controlled between 15 to 20° C., and relative humidity was 55 to 75%, with 12h light. Food and drinking water were on an ad libitum basis. Mice that met the inclusion criteria were selected: (1) no eye disease; (2) pupillary light reflexes in both eyes in response to direct and indirect light were normal. 4. Intraocular pressure in both the left and the right eye of each conscious mouse was measured and recorded. 5. Weight measurements of each mouse were taken. 4% chloral hydrate was injected to anaesthetize mice at a dose of 10 μL/g body weight; 6. Mouse glaucoma model: 3 μL TGF-β2 overexpression adenovirus vector (3×10^7 pfu/μL) was injected into the vitreous chamber to induce ocular hypertension. […] On the day of adenovirus vector intravitreal injection, mouse intraocular pressure was measured once. Intraocular pressure was measured again on the next day and subsequent selected days to avoid damage to the cornea caused by frequent measurement. […]
# [3] = Rabbit glaucoma model (1% dexamethasone eye drops), intraocular pressure; type: in vivo, New Zealand white rabbit; details: one week; for Average intraocular pressure, Left eye: 3 times a day, two drops, 4 h after treatment; for IOP reduction rate: left eye vs right eye; for Average intraocular pressure, Right eye: right eye as control
# Procedure: 1. Salidroside powder was dissolved in normal saline to prepare salidroside eye drops at the concentrations of 20 μM, 25 μM, 30 μM.
# 2. Fitly healthy, adult New Zealand white rabbit with body weight between 2.0 to 3.0 kg, consisting of equal numbers of male and female, were chosen for study. Rabbit glaucoma model was established by dosing the animals with 1% dexamethasone eye drops on both eyes 5 times a day for a total induction time of 3 weeks. Intraocular pressure was monitored starting from week 2. Glaucoma model was considered successfully established when intraocular pressure, measured at the same time of the day, was above 22 mmHg for a week. Glaucoma model was successful established on all 50 rabbits with the average intraocular pressure of 26.07±2.03 mmHg (n=100 eyes). Rabbits were randomly divided into 5 groups of 10: the normal control group, positive drug group (Travatan®, 0.004% travoprost eye drops), and three salidroside groups (20 μM, 25 μM, 30 μM salidroside).
# Positive drug group was treated with Travatan® in the left eye, three times a day, two drops each time. Intraocular pressure was measured 4 hours after treatment. Treatment lasted for two weeks. The three salidroside groups were treated with salidroside eye drops three times a day, two drops each time. Intraocular pressure was measured 4 hours after treatment. Treatment lasted for two weeks. The normal control group received eye drops in both eyes three times a day, two drops each time. Intraocular pressure was measured 4 hours after receiving eye drops. Eye drops were administered for 2 weeks.
# One week after the start of experiment, the average pressure for each eye after each measurement in each group is shown in Table 1.
compound,measurement,setting,value
"OC[C@H]1O[C@@H](OCCc2ccc(O)cc2)[C@H](O)[C@@H](O)[C@@H]1O [Salidroside, 2-(4-HYDROXYPHENYL) ETHYL-BETA-D-GLUCOPYRANOSIDE]","expression level of TGF beta, FN, COL-IV and LN","[1]; applicant's previous studies, dexamethasone-induced cells, after intervention of salidroside",decreases
same,"extracellular matrix proteins of the trabecular meshwork (FN, COL-IV, LN; qRT-PCR)","[1]; dexamethasone 10^-7 mol/L plus salidroside 1, 3, 10, 30, 100 μmol/L, normal human trabecular meshwork cells",reduced
same,intraocular pressure vs glaucoma control group,"[2]; salidroside intervention group (treated immediately after vector injection), 11th day after initiation",statistically significantly lowered
same,intraocular pressure vs glaucoma control group,"[2]; salidroside treatment group (treated after IOP increased and stabilized), 18th day after initiation",statistically significantly lowered
same,"Average intraocular pressure, Left eye",[3]; 20 μM eye drops,15.57 ± 1.52 mmHg
same,IOP reduction rate,[3]; 20 μM eye drops,30.98%
same,"Average intraocular pressure, Right eye",[3]; 20 μM group,22.56 ± 1.72 mmHg
same,"Average intraocular pressure, Left eye",[3]; 25 μM eye drops,15.07 ± 1.19 mmHg
same,IOP reduction rate,[3]; 25 μM eye drops,34.56%
same,"Average intraocular pressure, Right eye",[3]; 25 μM group,23.03 ± 1.02 mmHg
same,"Average intraocular pressure, Left eye",[3]; 30 μM eye drops,14.37 ± 1.54 mmHg
same,IOP reduction rate,[3]; 30 μM eye drops,37.19%
same,"Average intraocular pressure, Right eye",[3]; 30 μM group,22.88 ± 1.09 mmHg
same,average intraocular pressure in the left eye compared with the corresponding right eye as a control,[3]; P<0.01,significant lowered
same,IOP-lowering effect compared with the Travatan group,"[3]; salidroside groups 20, 25, 30 μM eye drops",better than that of the Travatan® group
